{
  "source": "patent US7109294B2",
  "about": "“Bacterial glycosyltransferase polypeptides involved in antibiotic resistance” (priority 2001, dated 2006)",
  "type_in_all_cases": "cell-based, Pseudomonas aeruginosa",
  "key": {"[1]": {"test_system": "45E7 mutant flow cell biofilm"}, "[2]": {"test_system": "30B1 mutant colony biofilm"}, "[3]": {"test_system": "45E7 mutant colony biofilm"}},
  "note": "“Also recorded” adds a separate entry of the source.",
  "data": [
    {"compound": "NC[C@H]1O[C@H](O[C@H]2[C@H](O)[C@@H](O[C@H]3O[C@H](CO)[C@@H](O)[C@H](N)[C@H]3O)[C@H](N)C[C@@H]2N)[C@H](N)C[C@@H]1O", "note": "[Tb, tobramycin]", "values": [
      {"measurement": "live versus dead cells in Tb-treated biofilm (BacLight)", "setting": "[1]", "result": "more dead cells than live ones"},
      {"measurement": "drop in viable count in colony biofilm", "setting": "[2]", "result": "~10^9"},
      {"measurement": "viable cells in colony biofilm", "setting": "[2]", "result": "below detection; also recorded: no viable cells detected"},
      {"measurement": "resistance of colony biofilm cells", "setting": "[3]", "result": "as resistant to the effects of Tb as the wild type"},
      {"measurement": "viable cells in colony biofilm", "setting": "[3]", "result": "below detection; also recorded: no viable cells were detected"}
    ]}
  ]
}
